In one assay the test system is MOLP-8 cells. As to the kind of experiment: MOLP-8 cell proliferation assay (alamarBlue). The settings on record: inhibition of cell proliferation, 120 hours, human multiple myeloma cell line. The format is cell-based. The method, boiled down: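 MOLP-8 myeloma cells in RPMI1640/20% FCS were treated with compound from 1E-5 to 1E-8 M for 120 h at 37 °C. Proliferation was measured by alamarBlue fluorescence (ex 530, em 590 nm), and the reading taken before dosing was subtracted. IC50 is relative to buffer-treated cells.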

For assay [1], the target named is T1, BRD4 Bromo Domain 2 [BRD4(2)] (Homo sapiens, UniProt O60885).
T1 construct: N-terminally His6-tagged BRD4(2) (amino acids 357-445); made in house; host or cells: E. coli
Description: BRD4(2)/acetylated peptide H4 binding assay (TR-FRET). Conditions: inhibition of interaction between His6-tagged BRD4(2) (amino acids 357-445) and acetylated histone H4 peptide. The text has this: Protein-Protein Interaction Assay: BRD4/Acetylated Peptide H4 Binding Assay
2. Assay Description for BRD4 Bromo Domain 2 [BRD4(2)]
To assess the BRD4(2) binding strength of the substances described in this application, the ability thereof to inhibit the interaction between BRD4(2) and acetylated histone H4 in a dose-dependent manner was quantified.
For this purpose, a time-resolved fluorescence resonance energy transfer (TR-FRET) assay was used, which measures the binding between N-terminally His6-tagged BRD4(2) (amino acids 357-445) and a synthetic acetylated histone H4 (Ac-H4) peptide with sequence SGRGK(Ac)GGK(Ac)GLGK(Ac)GGAK(Ac)RHRKVLRDNGSGSK-biotin. The recombinant BRD4(2) protein produced in house according to Filippakopoulos et al., Cell, 2012, 149:214-231 was expressed in E. coli and purified by means of (Ni-NTA) affinity and (Sephadex G-75) size exclusion chromatography. The Ac-H4 peptide can be purchased, for example, from Biosyntan (Berlin, Germany).
In the assay, typically 11 different concentrations of each substance (0.1 nM, 0.33 nM, 1.1 nM, 3.8 nM, 13 nM, 44 nM, 0.15 μM, 0.51 μM, 1.7 μM, 5.9 μM and 20 μM) were analysed as duplicates on the same microtitre plate. For this purpose, 100-fold concentrated solutions in DMSO were prepared by serial dilutions (1:3.4) of a 2 mM stock solution into a clear, 384-well microtitre plate (Greiner Bio-One, Frickenhausen, Germany). From this, 50 nl were transferred into a black test plate (Greiner Bio-One, Frickenhausen, Germany). The test was started by the addition of 2 μl of a 2.5-fold concentrated BRD4(2) solution (final concentration typically 100 nM in the 5 μl of reaction volume) in aqueous assay buffer [50 mM HEPES pH 7.5, 50 mM sodium chloride (NaCl); 50 mM potassium fluoride (KF); 0.25 mM CHAPS and 0.05% serum albumin (BSA)] to the substances in the test plate. This was followed by a 10-minute incubation step at 22° C. for the pre-equilibration of putative complexes between BRD4(2) and the substances.
The mixture was then incubated in the dark at 22° C. for one hour and then at 4° C. for at least 3 hours and for no longer than overnight. The formation of BRD4(2)/Ac-H4 complexes was determined by the measurement of the resonance energy transfer from the streptavidin-Eu chelate to the anti-6His-XL665 antibody present in the reaction. For this purpose, the fluorescence emission was measured at 620 nm and 665 nm after excitation at 330-350 nm in a TR-FRET measuring instrument, for example a Rubystar or Pherastar (both from BMG Lab Technologies, Offenburg, Germany) or a Viewlux (Perkin-Elmer). The ratio of the emissions at 665 nm and at 622 nm was taken as an indicator of the amount of BRD4(2)/Ac-H4 complexes formed.
The data (ratios) obtained were normalized, with 0% inhibition corresponding to the mean from the measurements for a set of controls (typically 32 data points) in which all the reagents were present. In these, in place of test substances, 50 nl of DMSO (100%) were used Inhibition of 100% corresponded to the mean from the measurements for a set of controls (typically 32 data points) in which all the reagents except BRD4(2) were present. The IC50 was determined by regression analysis based on a 4-parameter equation (minimum, maximum, IC50, Hill; Y=max+(min−max)/(1+(X/IC50)Hill)).
For orientation: In TR-FRET formats the signal depends on donor and acceptor labels being close together.

The test system of the next assay is MOLM-13 cells. As to the kind of experiment: MOLM-13 cell proliferation assay (alamarBlue). It counts as cell-based. The settings on record: inhibition of cell proliferation, 96 hours, human AML cell line. The method in brief:
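MOLM-13 AML cells (4000/well, RPMI1640 + 10% FCS) treated 96 h at 37 °C with 1E-5 to 1E-8 M compound. Proliferation by alamarBlue fluorescence (ex 530/em 590), pre-treatment reading subtracted; IC50 versus buffer-treated cells.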
A general note: The colour change of resazurin is a common sign of viable cells or microbes.

Bounds are passed on as bounds.

One may read the IC50 as the concentration needed to halve the response being measured. High values mean weaker potency in that assay, low ones greater potency in that assay. Turning to `C[C@@H]1C(=O)N(C)c2ccc(Nc3ccc(C(=O)NC4CCN(C)CC4)cc3)cc2N1Cc1ccccc1` [Example 11, 4-{[(3R)-4-benzyl-1,3-dimethyl-2-oxo-1,2,3,4-tetrahydroquinoxalin-6-yl]amino}-N-(1-methylpiperidin-4-yl)benzamide], the IC50 worked out at 0.102 µM in the assay with MOLP-8 cells, 0.107 µM in assay [1] and 0.364 µM in the assay on MOLM-13 cells.
The matching figures for `C[C@@H]1C(=O)N(C)c2ccc(Nc3ccc(C(=O)N4CC5(CCS5(=O)=O)C4)cc3)cc2N1C1CCOCC1` [Example 31, (3R)-6-({4-[(1,1-dioxido-1-thia-6-azaspiro[3.3]hept-6-yl)carbonyl]phenyl}amino)-1,3-dimethyl-4-(tetrahydro-2H-pyran-4-yl)-3,4-dihydroquinoxalin-2(1H)-one]: 1.25 µM, 0.126 µM and 1.79 µM.
For the compound `C[C@@H]1C(=O)N(C)c2ccc(Nc3ccc(S(=O)(=O)N(C)C)cc3)cc2N1C1CCCCCC1` [Example 45, 4-{[(3R)-4-cycloheptyl-1,3-dimethyl-2-oxo-1,2,3,4-tetrahydroquinoxalin-6-yl]amino}-N,N-dimethylbenzenesulphonamide], the half-maximal inhibitory concentration (IC50) turned out to be 1.1 µM with MOLP-8 cells, 0.083 µM in assay [1] and 1.34 µM with MOLM-13 cells.
Take `C[C@@H]1C(=O)N(C)c2ccc(Nc3ccc(C(=O)NC4CCN(C)CC4)cc3)cc2N1Cc1c(F)cccc1F` (stereo in doubt) [Example 39, 4-{[4-(2,6-difluorobenzyl)-1,3-dimethyl-2-oxo-1,2,3,4-tetrahydroquinoxalin-6-yl]amino}-N-(1-methylpiperidin-4-yl)benzamide]: the values for the half-inhibitory concentration (IC50) (in the assay on MOLP-8 cells; in assay [1]; in the assay with MOLM-13 cells) were 1.74 µM, 0.262 µM and 2.85 µM, respectively.
The matching figures for `C[C@@H]1C(=O)N(C)c2ccc(Nc3ccc(C(=O)N4CC5(CCS5(=O)=O)C4)cc3)cc2N1Cc1ccccc1` [Example 16, (3R)-4-benzyl-6-({4-[(1,1-dioxido-1-thia-6-azaspiro[3.3]hept-6-yl)carbonyl]phenyl}amino)-1,3-dimethyl-3,4-dihydroquinoxalin-2(1H)-one]: 0.096 µM, 0.097 µM and 0.374 µM.
Regarding `C[C@@H]1C(=O)N(C)c2ccc(Nc3ccc(C(=O)NC4CCC(N5CCN(CC6CC6)CC5)CC4)cc3)cc2N1Cc1c(F)cccc1F` (stereo in doubt) [Example 40, N-{4-[4-(cyclopropylmethyl)piperazin-1-yl]cyclohexyl}-4-{[4-(2,6-difluorobenzyl)-1,3-dimethyl-2-oxo-1,2,3,4-tetrahydroquinoxalin-6-yl]amino}benzamide], the 50% inhibitory concentration (IC50) is 6.62 µM in the assay with MOLP-8 cells, 0.386 µM in assay [1] and over 10 µM in the assay on MOLM-13 cells.
The matching figures for `COc1ccc(CN2c3cc(Nc4ccc(C(=O)NCCN5CCN(C)CC5)cc4)ccc3N(C)C(=O)[C@H]2C)cc1` [Example 21, 4-{[(3R)-4-(4-methoxybenzyl)-1,3-dimethyl-2-oxo-1,2,3,4-tetrahydroquinoxalin-6-yl]amino}-N-[2-(4-methylpiperazin-1-yl)ethyl]benzamide]: 0.069 µM, 0.054 µM and 0.275 µM.
In the same order, the values of `C[C@@H]1C(=O)N(C)c2ccc(Nc3ccc(S(=O)(=O)N(C)C)cc3)cc2N1C1CCCC1` [Example 3, 4-{[(3R)-4-cyclopentyl-1,3-dimethyl-2-oxo-1,2,3,4-tetrahydroquinoxalin-6-yl]amino}-N,N-dimethylbenzenesulphonamide] are 0.301 µM, 0.085 µM and 0.289 µM.
In the same order, the values of `C[C@@H]1C(=O)N(C)c2ccc(Nc3ccc(S(=O)(=O)N4CCOCC4)cc3)cc2N1C1CCOCC1` [Example 47, (3R)-1,3-dimethyl-6-{[4-(morpholin-4-ylsulphonyl)phenyl]amino}-4-(tetrahydro-2H-pyran-4-yl)-3,4-dihydroquinoxalin-2(1H)-one] are 0.496 µM, 0.134 µM and 0.407 µM.
On to `CC(=O)N1CCC(NC(=O)c2ccc(Nc3ccc4c(c3)N(C3CCOCC3)[C@H](C)C(=O)N4C)cc2)CC1` [Example 32, N-(1-acetylpiperidin-4-yl)-4-{[(3R)-1,3-dimethyl-2-oxo-4-(tetrahydro-2H-pyran-4-yl)-1,2,3,4-tetrahydroquinoxalin-6-yl]amino}benzamide], for which the IC50 with MOLP-8 cells is 2.58 µM; in assay [1], 0.482 µM; with MOLM-13 cells, 3.45 µM.
The matching figures for `C[C@@H]1C(=O)N(C)c2ccc(Nc3ccc(S(=O)(=O)N(C)C)cc3)cc2N1Cc1ccccc1` [Example 14, 4-{[(3R)-4-benzyl-1,3-dimethyl-2-oxo-1,2,3,4-tetrahydroquinoxalin-6-yl]amino}-N,N-dimethylbenzenesulphonamide]: 0.115 µM, 0.078 µM and 0.233 µM.
In the same order, the values of `C[C@@H]1C(=O)N(C)c2ccc(Nc3ccc(C(=O)NC4CC4)cc3)cc2N1C1CCCC1` [Example 2, 4-{[(3R)-4-cyclopentyl-1,3-dimethyl-2-oxo-1,2,3,4-tetrahydroquinoxalin-6-yl]amino}-N-cyclopropylbenzamide] are 0.727 µM, 0.222 µM and 0.811 µM.
With `C[C@@H]1C(=O)N(C)c2ccc(Nc3ccc(S(=O)(=O)N4CCN(C)CC4)cc3)cc2N1Cc1ccccc1` [Example 15, (3R)-4-benzyl-1,3-dimethyl-6-({4-[(4-methylpiperazin-1-yl)sulphonyl]phenyl}amino)-3,4-dihydroquinoxalin-2(1H)-one], the IC50 in the assay with MOLP-8 cells came to 0.109 µM; in assay [1] it was 0.051 µM; in the assay on MOLM-13 cells it was 0.09 µM.
The matching figures for `COc1ccc(CN2c3cc(Nc4ccc(C(=O)N5CCOCC5)cc4)ccc3N(C)C(=O)[C@H]2C)cc1` [Example 18, (3R)-4-(4-methoxybenzyl)-1,3-dimethyl-6-{[4-(morpholin-4-ylcarbonyl)phenyl]amino}-3,4-dihydroquinoxalin-2(1H)-one]: 0.148 µM, 0.111 µM and 0.257 µM.
The matching figures for `C[C@@H]1C(=O)N(C)c2ccc(Nc3ccc(C(=O)NCC4COC4)cc3)cc2N1C1CCOCC1` [Example 28, 4-{[(3R)-1,3-dimethyl-2-oxo-4-(tetrahydro-2H-pyran-4-yl)-1,2,3,4-tetrahydroquinoxalin-6-yl]amino}-N-(oxetan-3-ylmethyl)benzamide]: 1.8 µM, 0.513 µM and 2.76 µM.
In the case of `COc1cc(C(=O)NC2CCC(N3CCN(CC4CC4)CC3)CC2)ccc1Nc1ccc2c(c1)N(C1CCOCC1)[C@H](C)C(=O)N2C` (stereo partly drawn) [Example 37, N-{4-[4-(cyclopropylmethyl)piperazin-1-yl]cyclohexyl}-4-{[(3R)-1,3-dimethyl-2-oxo-4-(tetrahydro-2H-pyran-4-yl)-1,2,3,4-tetrahydroquinoxalin-6-yl]amino}-3-methoxybenzamide], the half-maximal inhibitory concentration (IC50) worked out at 0.479 µM in the assay with MOLP-8 cells, 0.41 µM in assay [1] and 1.08 µM with MOLM-13 cells.

The values are drawn from patent US20150344444A1, “BET-PROTEIN-INHIBITING DIHYDROXYQUINOXALINONES” (BAYER PHARMA AKTIENGESELLSCHAFT, priority 2012, published 2015).
